Measured values from patent US20160362744A1, “Biomarkers of Mineralocorticoid Receptor Activation” (INSERM (Institut National de la Sante et de la Recherche …, priority 2008, published 2016).
“Also recorded” adds a separate entry of the source. Values belong to the molecule of their own block, whether it stands above or below them.

What was measured:
rat MR [1] = molecular target: T1, rat MR (Rattus norvegicus, UniProt P22199); experiment: Expression of Serpina3 mRNA (Q-PCR) in rat cardiomyocyte H9C2 cells stably overexpressing rat MR; type: cell-based; conditions: for serpina3 induction, time course: Aldosterone 10 nM
T1 construct: expressed in transfected cells; host or cells: rat H9C2 cardiomyocyte cells (H9-C2/MR)
T1 sequence (P22199 1-981): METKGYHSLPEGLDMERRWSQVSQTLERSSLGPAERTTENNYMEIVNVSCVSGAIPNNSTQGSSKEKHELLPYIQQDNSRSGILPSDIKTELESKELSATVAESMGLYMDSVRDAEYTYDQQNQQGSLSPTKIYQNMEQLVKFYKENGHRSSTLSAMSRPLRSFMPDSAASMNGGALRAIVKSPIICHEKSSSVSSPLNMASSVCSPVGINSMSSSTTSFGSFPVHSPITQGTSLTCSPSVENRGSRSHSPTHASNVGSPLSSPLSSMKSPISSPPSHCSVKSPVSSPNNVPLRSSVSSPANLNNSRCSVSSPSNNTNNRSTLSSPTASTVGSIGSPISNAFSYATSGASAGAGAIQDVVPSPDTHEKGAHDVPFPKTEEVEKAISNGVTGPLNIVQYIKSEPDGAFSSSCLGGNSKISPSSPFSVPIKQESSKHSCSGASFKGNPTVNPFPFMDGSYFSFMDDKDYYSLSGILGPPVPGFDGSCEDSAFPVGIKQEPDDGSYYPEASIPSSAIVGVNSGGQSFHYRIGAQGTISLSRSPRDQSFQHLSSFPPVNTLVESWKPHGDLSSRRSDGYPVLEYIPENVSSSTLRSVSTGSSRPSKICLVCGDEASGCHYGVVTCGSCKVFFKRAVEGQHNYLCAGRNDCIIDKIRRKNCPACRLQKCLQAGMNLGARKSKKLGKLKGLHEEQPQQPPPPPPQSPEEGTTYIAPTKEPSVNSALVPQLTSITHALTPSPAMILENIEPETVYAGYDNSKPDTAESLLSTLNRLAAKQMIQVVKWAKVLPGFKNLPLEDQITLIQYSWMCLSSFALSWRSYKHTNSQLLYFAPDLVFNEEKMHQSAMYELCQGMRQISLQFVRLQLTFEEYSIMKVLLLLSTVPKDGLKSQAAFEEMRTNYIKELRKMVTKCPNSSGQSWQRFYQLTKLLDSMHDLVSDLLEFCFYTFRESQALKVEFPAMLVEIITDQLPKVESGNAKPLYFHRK
Procedure: Expression of Serpina3 in a Cellular Model of Rat Cardiomyocyte (H9C2 Cells) Stably Overexpressing with Rat MR
(§1) Quantitative Serpina3 mRNA expression was analyzed by quantitative PCR (Q-PCR, Light Cycler, Biorad) using forward 5′-[…]-3′ (SEQ ID NO:7) and reverse 5′-[…]-3′ (SEQ ID NO:8) primers on 25 μl of RT-PCR (using the qPCR Core kit for Sybr Green I from Eurogentec) prepared using 2 μg DNA-free total RNA extracted from rat H9-C2/MR cells treated with various concentrations of aldosterone or 10^−8M corticosterone or 10^−6 M MR antagonist RU 28318, alone or in combination.

rat MR [2] = molecular target: T1, rat MR; experiment: Expression of NGAL mRNA (Q-PCR) in rat cardiomyocyte H9C2 cells stably expressing rat MR; type: cell-based; conditions: for Lipocalin2/NGAL expression, time-course: 10^−8M aldosterone
Procedure: Expression of NGAL in a Cellular Model of Rat Cardiomyocyte (H9C2 Cells) Stably Overexpressing with Rat MR
as §1, with “NGAL” for “Serpina3”, “NO:3)” for “NO:7)”, “NO:4)” for “NO:8)”, “28318 or GR antagonist RU 486,” for “28318,”

MR [3] = molecular target: T2, MR (Mus musculus, UniProt Q8VII8); experiment: NGAL expression in uninephrectomized mice with aldosterone infusion and 1% salt (aldo/salt model); type: in vivo; conditions: 3 weeks
T2 construct: from tissue; host or cells: living mice (heart, plasma)
T2 sequence (Q8VII8 1-978): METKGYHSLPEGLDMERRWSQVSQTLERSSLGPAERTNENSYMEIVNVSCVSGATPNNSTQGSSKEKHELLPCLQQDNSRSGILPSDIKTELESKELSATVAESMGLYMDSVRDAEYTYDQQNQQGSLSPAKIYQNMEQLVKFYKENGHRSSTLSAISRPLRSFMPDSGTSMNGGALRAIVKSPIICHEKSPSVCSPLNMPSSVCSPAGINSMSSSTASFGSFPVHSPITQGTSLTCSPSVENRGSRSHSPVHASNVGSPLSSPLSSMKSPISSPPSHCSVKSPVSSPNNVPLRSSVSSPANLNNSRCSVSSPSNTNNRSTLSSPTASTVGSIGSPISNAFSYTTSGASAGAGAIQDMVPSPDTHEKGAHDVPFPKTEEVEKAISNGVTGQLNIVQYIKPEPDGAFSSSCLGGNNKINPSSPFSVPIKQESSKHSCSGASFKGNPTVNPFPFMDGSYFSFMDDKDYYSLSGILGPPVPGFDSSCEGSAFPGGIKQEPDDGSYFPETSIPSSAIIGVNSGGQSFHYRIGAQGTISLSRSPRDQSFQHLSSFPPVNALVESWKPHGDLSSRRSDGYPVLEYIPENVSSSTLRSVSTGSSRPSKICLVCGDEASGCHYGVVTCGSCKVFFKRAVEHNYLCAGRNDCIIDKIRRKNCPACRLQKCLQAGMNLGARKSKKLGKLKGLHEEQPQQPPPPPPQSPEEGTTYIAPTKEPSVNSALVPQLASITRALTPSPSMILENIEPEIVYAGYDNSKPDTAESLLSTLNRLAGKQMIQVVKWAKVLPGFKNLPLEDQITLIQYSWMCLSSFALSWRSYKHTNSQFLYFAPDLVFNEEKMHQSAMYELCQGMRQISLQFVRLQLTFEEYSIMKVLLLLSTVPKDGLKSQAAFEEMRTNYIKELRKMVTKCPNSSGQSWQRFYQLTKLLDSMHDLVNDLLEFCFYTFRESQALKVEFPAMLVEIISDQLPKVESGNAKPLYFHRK
Procedure: Quantitative NGAL mRNA expression was analyzed by quantitative PCR (Q-PCR, Light Cycler, Biorad) using forward 5′-[…]-3′ (SEQ ID NO:1) and Reverse 5′-[…]-3′ (SEQ ID NO:2) primers on 25 μl of RT-PCR (using the qPCR Core kit for Sybr Green I from Eurogentec) prepared using 2 μg DNA-free total RNA extracted from the heart of one, two and three mo-old MR transgenic mice and compared to matched littermates, as well as two mo-old GR transgenic mice (and respective control littermates). Protein expression of NGAL was analyzed in cardiac protein extracts from two mo-old MR mice using a specific NGAL antibody (AF1857, R&D Systems). […]
Quantitative NGAL mRNA expression was also analyzed by Q-PCR in the heart of mice with uninephrectomy and treated with aldosterone infusion (60 μg/kg/j, 0.25 μl/h ALZET minipumps) and 1% salt in the drinking water for 3 weeks (as compared to uninephrectomized-only control mice), and in thoracic aorta from 9 months-old mice with conditional overexpression of the human MR in the endothelium only obtained after appropriate breeding of the MR transgenic mice described above with an endothelial-specific transactivator mice (provided by L. E. Benjamine, Harvard, USA) (Sun et al., 2005) that allowed conditional expression of hMR in the endothelium only. […]

MR [4] = molecular target: T2, MR; experiment: Plasma NGAL (ELISA) in db/db mouse model of type II diabetes treated with MR antagonist; type: in vivo, mice

Compound: CCC[C@@H]1CC2=CC(=O)CC[C@]2(C)[C@H]2CC[C@@]3(C)[C@@H](CC[C@@]3(O)CCC(=O)[O-])[C@H]12.[K+] [RU 28318]
- Effect on corticosterone induction of SERPINA3 mRNA (rat MR [1]; H9C2/MR+ cells, MR antagonist with 10 nM corticosterone): prevented
- Effect on aldosterone induction of SERPINA3 mRNA (rat MR [1]; H9C2/MR+ cells, in presence of MR antagonist with 1 nM aldosterone): suppressed
- Effect on aldosterone-induced increase of Lipocalin2/NGAL expression (rat MR [2]; antagonist (10^−6 M) added to 10^−8M aldosterone): prevented
- Effect on corticosterone-induced increase of Lipocalin2/NGAL expression (rat MR [2]; antagonist (10^−6 M) with 10^−8M corticosterone): prevented

- Lipocalin2/NGAL expression in the heart (MR [3]; 60 μg/kg/j infusion, quantitative PCR): increased
- plasma levels of lipocalin2/NGAL (MR [3]; ELISA): increased
- expression of serpina3 (in words) (rat MR [1]; H9C2/MR cells, 1 nM aldosterone for 24 h): increased
- Serpina3 expression (in words) (rat MR [1]; H9C2/MR cells, 10 nM aldosterone, 24 h exposure): highly induced
- serpina3 induction, time course (rat MR [1]; H9C2/MR cells, after 10 hours): induced
- serpina3 induction, time course (rat MR [1]; H9C2/MR cells, after 24 h): 15 ×
- SERPINA3 mRNA induction (rat MR [1]; H9C2/MR+ cells, aldosterone 1 nM for 24 hrs): about 8 fold
- Lipocalin2/NGAL expression (rat MR [2]; 10^−8M aldosterone for 24 h): increased
- Lipocalin2/NGAL expression, time-course (rat MR [2]; after 24 h): induced
- Lipocalin2/NGAL expression, time-course (rat MR [2]; after 48 h): remained sustained
- Lipocalin2/NGAL expression, dose-response (rat MR [2]; increasing concentrations of aldosterone): stimulated by increasing concentrations
Compound: C[C@]12CCC(=O)C=C1CC[C@@H]1[C@@H]2[C@@H](O)C[C@]2(C=O)[C@@H](C(=O)CO)CC[C@@H]12 [aldosterone]
- Serpina3 induction, dose-response (rat MR [1]; H9C2/MR cells, aldosterone, starting with 1 nM): dose-dependent; also recorded: Concentration dependent induction

- Effect on plasma levels of lipocalin2/NGAL in control mice (MR [4]; control mice, 17 weeks treatment): no effect
- Effect on increase in plasma levels of lipocalin2/NGAL in db/db mice (MR [4]; db/db mice, 17 weeks in vivo treatment, 100 mg/Kg/day in drinking water): prevented
Compound: C[C@]12CCC(=O)C=C1C=C[C@@H]1[C@@H]2CC[C@@]2(C)[C@H]1CC[C@@]2(O)CCC(=O)O [canrenoate]

- SERPINA3 mRNA expression (rat MR [1]; H9C2/MR cells, 10 nM corticosterone, 24 h): increased
- Lipocalin2/NGAL expression (rat MR [2]; 10^−8M corticosterone): stimulated
Compound: C[C@]12C[C@H](O)[C@H]3[C@@H](CCC4=CC(=O)CC[C@@]43C)[C@@H]1CC[C@@H]2C(=O)CO [corticosterone]
